What is called IC50 is the concentration needed to halve the response being measured. Broadly, the half-life is how long it takes for the measured level to halve. Broadly, the inhibition is the share of the control response that was lost under treatment. As usually defined, the Tmax is the time at which the peak concentration occurs. By Cmax is commonly meant the maximum level reached in the sampled fluid or tissue. As usually defined, the AUC(0-inf) is the area under the concentration-time curve extrapolated to infinity. What is called CL/F is the apparent clearance, not corrected for the fraction that reaches the circulation. By inhibition in vivo is commonly meant the change of the read-out against control, counted positive when it falls.

The target of series [1] is T1, Synaptic vesicular amine transporter (Rattus norvegicus, UniProt Q01827). The experiment in a line: Inhibition of [3H]DTBZ binding to VMAT2 in rat brain incubated for 30 mins by liquid scintillation spectrometry analysis. The format is tissue-based.
T1 sequence (Q01827 whole entry): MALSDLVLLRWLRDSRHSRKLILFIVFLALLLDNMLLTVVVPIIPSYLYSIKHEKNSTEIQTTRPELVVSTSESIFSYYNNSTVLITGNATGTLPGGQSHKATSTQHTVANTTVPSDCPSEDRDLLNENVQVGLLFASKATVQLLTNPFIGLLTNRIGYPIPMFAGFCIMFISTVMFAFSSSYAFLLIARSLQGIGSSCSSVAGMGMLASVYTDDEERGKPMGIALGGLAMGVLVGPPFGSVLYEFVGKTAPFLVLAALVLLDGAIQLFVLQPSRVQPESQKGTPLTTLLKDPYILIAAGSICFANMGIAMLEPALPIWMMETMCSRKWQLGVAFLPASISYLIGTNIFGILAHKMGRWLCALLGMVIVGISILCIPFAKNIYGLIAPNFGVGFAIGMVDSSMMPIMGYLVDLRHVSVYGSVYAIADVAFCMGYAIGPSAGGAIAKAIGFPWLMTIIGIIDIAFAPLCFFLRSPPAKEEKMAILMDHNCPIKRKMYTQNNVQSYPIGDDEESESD
A short description of series [2]: Metabolic stability in monkey liver microsomes assessed as parent compound remaining at 1 uM in the presence of NADPH measured after 60 mins by LC-MS/MS analysis. The settings on record: rhesus monkey; for remaining at 1 h, 1 µM: liver microsomes, read-out: Stability. The format is ADME, Macaca mulatta, Microsome.
Series [3] is described as follows: Metabolic stability in mouse liver microsomes assessed as parent compound remaining at 1 uM in the presence of NADPH measured after 60 mins by LC-MS/MS analysis. The format is ADME, Microsome. The note with it: liver microsomes, read-out: Stability. (In general: Microsomes from liver hold many membrane-bound enzymes, among them those of drug oxidation.)
Series [4] is described as follows: Metabolic stability in human liver microsomes assessed as parent compound remaining at 1 uM in the presence of NADPH measured after 60 mins by LC-MS/MS analysis. The format is ADME, Microsome. The note with it: read-out: Stability.
Series [5] in a line: Metabolic stability in monkey liver microsomes assessed as intrinsic clearance at 1 uM in the presence of NADPH measured for 60 mins by LC-MS/MS analysis. The format is ADME, Macaca mulatta, Microsome. The settings on record: rhesus monkey, read-out: CLH.
The nature of series [6]: Metabolic stability in mouse liver microsomes assessed as intrinsic clearance at 1 uM in the presence of NADPH measured for 60 mins by LC-MS/MS analysis. Format: ADME, Microsome. The settings on record: read-out: CLH.
Series [7] in a line: Metabolic stability in human liver microsomes assessed as intrinsic clearance at 1 uM in the presence of NADPH measured for 60 mins by LC-MS/MS analysis. The format is ADME, Microsome. The settings on record: read-out: CLH.
The nature of series [8]: Metabolic stability in human liver microsomes assessed as half life at 1 uM in the presence of NADPH measured for 60 mins by LC-MS/MS analysis. Format: ADME, Microsome.
Series [9] is described as follows: Metabolic stability in mouse liver microsomes assessed as half life at 1 uM in the presence of NADPH measured for 60 mins by LC-MS/MS analysis. Format: ADME, Microsome. The settings on record: liver microsomes.
Series [10] in a line: Metabolic stability in monkey liver microsomes assessed as half life at 1 uM in the presence of NADPH measured for 60 mins by LC-MS/MS analysis. The format is ADME, Macaca mulatta, Microsome. The settings on record: rhesus monkey.
The target of series [11] is Synaptic vesicular amine transporter (Rattus norvegicus) (UniProt Q01827). Nature of the series: Inhibition of [3H]DA uptake at VMAT2 in rat striatal synaptosome at 1 uM incubated for 10 mins followed by [3H]DA addition and measured after 20 mins by TopCount scintillation counting method relative to control. The format is subcellular. The note with it: Striatum, time 30.0 min.
Synaptic vesicular amine transporter (Rattus norvegicus), sequence (Q01827 whole entry): as above

Series [12] has the same target. Nature of the series: Inhibition of [3H]DA uptake at VMAT2 in rat striatal synaptosome at 0.1 uM incubated for 10 mins followed by [3H]DA addition and measured after 20 mins by TopCount scintillation counting method relative to control. The format is subcellular. The note with it: Striatum, time 30.0 min.
Series [13] has as its target T1, Synaptic vesicular amine transporter. The experiment in a line: Inhibition of [3H]DA uptake at VMAT2 in rat striatal synaptosome incubated for 10 mins followed by [3H]DA addition and measured after 20 mins by TopCount scintillation counting method. Format: subcellular, Striatum.
The target of series [14] is Voltage-gated inwardly rectifying potassium channel KCNH2 (Homo sapiens, UniProt Q12809). The experiment in a line: Inhibition of human ERG.
Voltage-gated inwardly rectifying potassium channel KCNH2, sequence (Q12809 whole entry): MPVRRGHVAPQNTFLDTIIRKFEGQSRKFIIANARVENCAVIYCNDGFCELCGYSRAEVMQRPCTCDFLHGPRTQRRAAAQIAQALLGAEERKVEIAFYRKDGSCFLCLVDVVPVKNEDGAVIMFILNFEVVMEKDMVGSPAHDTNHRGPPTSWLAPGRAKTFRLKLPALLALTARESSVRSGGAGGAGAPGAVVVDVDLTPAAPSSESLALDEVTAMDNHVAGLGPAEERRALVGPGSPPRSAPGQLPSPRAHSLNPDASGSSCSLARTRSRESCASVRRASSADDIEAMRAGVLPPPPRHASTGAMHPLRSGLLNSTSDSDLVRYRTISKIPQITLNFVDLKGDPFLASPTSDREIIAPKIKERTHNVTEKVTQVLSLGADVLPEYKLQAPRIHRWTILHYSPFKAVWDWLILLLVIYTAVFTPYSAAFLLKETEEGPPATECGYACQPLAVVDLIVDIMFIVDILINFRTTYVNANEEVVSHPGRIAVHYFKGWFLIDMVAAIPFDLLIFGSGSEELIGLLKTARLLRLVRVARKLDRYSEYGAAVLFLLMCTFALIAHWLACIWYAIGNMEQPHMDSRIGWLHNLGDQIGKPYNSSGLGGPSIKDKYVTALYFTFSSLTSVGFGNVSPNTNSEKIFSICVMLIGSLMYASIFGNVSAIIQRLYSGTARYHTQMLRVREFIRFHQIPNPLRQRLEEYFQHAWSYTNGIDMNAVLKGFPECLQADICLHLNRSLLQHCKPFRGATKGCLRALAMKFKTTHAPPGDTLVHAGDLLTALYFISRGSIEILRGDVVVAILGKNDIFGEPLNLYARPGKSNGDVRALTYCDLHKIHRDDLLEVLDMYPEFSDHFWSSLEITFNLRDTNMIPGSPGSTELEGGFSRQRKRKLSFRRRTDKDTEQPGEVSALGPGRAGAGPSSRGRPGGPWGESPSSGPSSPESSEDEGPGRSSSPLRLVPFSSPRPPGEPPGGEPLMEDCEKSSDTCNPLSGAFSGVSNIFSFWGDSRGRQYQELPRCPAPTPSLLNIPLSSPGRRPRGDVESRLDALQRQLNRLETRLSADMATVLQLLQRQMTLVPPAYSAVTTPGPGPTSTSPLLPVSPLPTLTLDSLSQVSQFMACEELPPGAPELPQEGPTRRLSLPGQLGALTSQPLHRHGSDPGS
A short description of series [15]: Tmax in Sprague-Dawley rat at 10 umol/kg, ig administered as single dose measured for 12 hrs by LC-MS/MS analysis. The format is ADME. The settings on record: in vivo, po, dose 10 µmol/kg.
Series [16] is described as follows: Cmax in Sprague-Dawley rat at 10 umol/kg, ig administered as single dose measured for 12 hrs by LC-MS/MS analysis. The format is ADME. Details: route […], time 12 hrs, dose 10 µmol/kg. The note with it: in vivo, po.
Series [17] in a line: AUC (0 to infinity) in Sprague-Dawley rat at 10 umol/kg, ig administered as single dose by LC-MS/MS analysis. The format is ADME. Details: time infinity, route […], dose 10 µmol/kg. The note with it: in vivo, po.
Series [18] in a line: Apparent volume of distribution during terminal phase in Sprague-Dawley rat at 10 umol/kg, ig administered as single dose measured after 12 hrs by LC-MS/MS analysis. The format is ADME. The settings on record: in vivo, po, dose 10 µmol/kg, read-out: Vz/F.
A short description of series [19]: Clearance in Sprague-Dawley rat at 10 umol/kg, ig administered as single dose measured for 12 hrs by LC-MS/MS analysis. Format: ADME. The settings on record: in vivo, po, dose 10 µmol/kg.
Series [20] is described as follows: Half life in Sprague-Dawley rat at 10 umol/kg, ig administered as single dose measured for 12 hrs by LC-MS/MS analysis. Format: ADME. The note with it: in vivo, po, dose 10 µmol/kg.
Series [21] concerns Rattus norvegicus. The experiment in a line: Reduction in spontaneous locomotor activity in Sprague-Dawley rat at 3 umol/kg, po measured for 3 hrs. Format: functional.
For series [22], the system named is Rattus norvegicus. Nature of the series: Reduction in spontaneous locomotor activity in Sprague-Dawley rat at 15 umol/kg, po measured for 3 hrs. The format is functional.
Series [23] can be described thus: Drug uptake in Sprague-Dawley rat brain at 5 umol/kg, ig measured after 2 hrs by LC-MS/MS analysis. The format is ADME, tissue-based. The note with it: in vivo, po, dose 5 µmol/kg.
Series [24] concerns the target Cytochrome P450 3A4 (Homo sapiens, UniProt P08684). Nature of the series: Inhibition of CYP3A4 (unknown origin). Format: ADME.
Series [25] concerns the target Cytochrome P450 2C9 (Homo sapiens, UniProt P11712). Nature of the series: Inhibition of CYP2C9 (unknown origin). Format: ADME.
Series [26] deals with Cytochrome P450 2D6 (Homo sapiens, UniProt P10635). The experiment in a line: Inhibition of CYP2D6 (unknown origin). The format is ADME.
Cytochrome P450 2D6, sequence (P10635 whole entry): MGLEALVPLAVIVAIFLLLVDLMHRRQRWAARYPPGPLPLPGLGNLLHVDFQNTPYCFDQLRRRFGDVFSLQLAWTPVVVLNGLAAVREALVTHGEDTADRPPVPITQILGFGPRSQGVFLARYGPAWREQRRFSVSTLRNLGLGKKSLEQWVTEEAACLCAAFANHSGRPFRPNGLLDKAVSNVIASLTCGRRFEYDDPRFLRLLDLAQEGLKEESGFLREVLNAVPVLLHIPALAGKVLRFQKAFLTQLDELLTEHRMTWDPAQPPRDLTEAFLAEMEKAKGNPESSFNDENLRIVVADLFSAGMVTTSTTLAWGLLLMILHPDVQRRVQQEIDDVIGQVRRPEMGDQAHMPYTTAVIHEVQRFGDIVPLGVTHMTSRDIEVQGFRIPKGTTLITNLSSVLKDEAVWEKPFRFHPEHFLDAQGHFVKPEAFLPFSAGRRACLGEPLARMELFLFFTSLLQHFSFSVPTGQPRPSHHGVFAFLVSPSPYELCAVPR
The target in series [27] is Cytochrome P450 2C19 (Homo sapiens, UniProt P33261). The experiment in a line: Inhibition of CYP2C19 (unknown origin). The format is ADME.
Cytochrome P450 2C19, sequence (P33261 whole entry): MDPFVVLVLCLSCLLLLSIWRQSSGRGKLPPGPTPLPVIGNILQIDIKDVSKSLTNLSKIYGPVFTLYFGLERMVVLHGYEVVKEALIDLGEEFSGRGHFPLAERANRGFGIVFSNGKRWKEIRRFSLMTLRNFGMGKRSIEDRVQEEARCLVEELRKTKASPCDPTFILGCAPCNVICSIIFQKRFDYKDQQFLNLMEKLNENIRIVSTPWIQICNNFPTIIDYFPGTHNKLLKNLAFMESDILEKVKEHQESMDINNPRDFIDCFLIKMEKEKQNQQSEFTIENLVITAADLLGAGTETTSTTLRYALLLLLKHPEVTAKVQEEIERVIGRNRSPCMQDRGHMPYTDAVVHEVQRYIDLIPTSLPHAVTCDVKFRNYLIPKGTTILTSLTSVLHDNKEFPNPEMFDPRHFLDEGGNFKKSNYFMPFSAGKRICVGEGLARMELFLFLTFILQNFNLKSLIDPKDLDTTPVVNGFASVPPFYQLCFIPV
The target of series [28] is T2, Cytochrome P450 2B6 (Homo sapiens, UniProt P20813).
T2 sequence (P20813 whole entry): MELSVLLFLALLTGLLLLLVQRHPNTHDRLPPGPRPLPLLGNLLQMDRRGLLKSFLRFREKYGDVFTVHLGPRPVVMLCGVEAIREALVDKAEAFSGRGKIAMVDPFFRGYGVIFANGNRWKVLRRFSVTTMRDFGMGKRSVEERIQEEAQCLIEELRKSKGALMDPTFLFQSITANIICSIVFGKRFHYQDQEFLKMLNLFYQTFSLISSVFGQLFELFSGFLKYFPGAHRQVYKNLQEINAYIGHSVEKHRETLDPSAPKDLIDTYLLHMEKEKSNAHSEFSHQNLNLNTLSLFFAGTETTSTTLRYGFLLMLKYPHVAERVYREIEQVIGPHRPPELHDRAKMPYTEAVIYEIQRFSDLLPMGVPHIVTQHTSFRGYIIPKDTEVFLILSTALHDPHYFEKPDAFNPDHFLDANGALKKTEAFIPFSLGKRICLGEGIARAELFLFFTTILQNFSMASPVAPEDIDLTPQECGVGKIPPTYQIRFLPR
The experiment in a line: Inhibition of CYP2B6 (unknown origin). The format is ADME.

Each structure is given as a SMILES string.

Cytochrome P450 2C9, sequence (P11712 whole entry): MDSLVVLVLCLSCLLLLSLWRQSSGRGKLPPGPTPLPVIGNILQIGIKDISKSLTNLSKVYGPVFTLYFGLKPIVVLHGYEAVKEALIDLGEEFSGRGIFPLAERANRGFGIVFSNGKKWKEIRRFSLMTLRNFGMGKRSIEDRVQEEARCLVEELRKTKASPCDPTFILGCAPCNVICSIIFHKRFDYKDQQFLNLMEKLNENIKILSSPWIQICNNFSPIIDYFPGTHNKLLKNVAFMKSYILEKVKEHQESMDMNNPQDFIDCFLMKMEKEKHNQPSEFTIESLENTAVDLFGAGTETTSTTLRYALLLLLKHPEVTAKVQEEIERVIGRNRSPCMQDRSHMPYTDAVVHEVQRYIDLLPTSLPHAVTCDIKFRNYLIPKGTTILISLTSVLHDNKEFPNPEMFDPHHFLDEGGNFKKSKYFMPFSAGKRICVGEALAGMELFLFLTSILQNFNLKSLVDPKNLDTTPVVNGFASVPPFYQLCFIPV
Cytochrome P450 3A4, sequence (P08684 whole entry): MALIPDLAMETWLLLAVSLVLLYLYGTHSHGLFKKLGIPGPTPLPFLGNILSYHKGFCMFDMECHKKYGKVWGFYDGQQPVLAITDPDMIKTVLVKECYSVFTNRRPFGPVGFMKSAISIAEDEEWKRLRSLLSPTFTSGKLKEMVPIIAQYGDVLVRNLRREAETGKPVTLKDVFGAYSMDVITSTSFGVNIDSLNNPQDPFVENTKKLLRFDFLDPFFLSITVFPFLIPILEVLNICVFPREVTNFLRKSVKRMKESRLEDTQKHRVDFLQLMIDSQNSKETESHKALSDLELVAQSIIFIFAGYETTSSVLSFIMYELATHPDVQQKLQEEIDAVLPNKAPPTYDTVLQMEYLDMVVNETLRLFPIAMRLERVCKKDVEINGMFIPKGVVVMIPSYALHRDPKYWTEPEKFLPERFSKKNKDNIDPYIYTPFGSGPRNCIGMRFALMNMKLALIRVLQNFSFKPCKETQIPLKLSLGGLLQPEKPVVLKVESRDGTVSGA

For the molecule `CCOc1cc2c(cc1OCCCF)CCN1CC(CC(C)C)C(O)CC21` (configuration not stated), in series [1], the IC50 turned out to be 56.6 nM.

As to `CCCOc1cc2c(cc1OCC)C1CC(O)C(CC(C)C)CN1CC2` (configuration not stated), the remaining at 1 h, 1 µM in series [2] amounted to 6.6%; in series [3], 1.3%; in [4], 47.3%. Besides, the figures for the CLint scaled at 1 µM in series [5], in series [6] and in series [7] were 120 mL/min/kg, 535 mL/min/kg and 22.5 mL/min/kg, respectively. The same molecule displayed an IC50 in series [1] of 12.5 nM. Further, the half-life at 1 µM was found to be 55.4 min in [8], 10.3 min in [9] and 15.6 min in series [10].

Regarding `CCOc1cc2c(cc1OCCCOC)CCN1CC(CC(C)C)C(O)CC21` (configuration not stated), in [1], the IC50 came to 200 nM.

In series [1], `CCOc1cc2c(cc1OCC1CC1)CCN1CC(CC(C)C)C(O)CC21` (configuration not stated) gave a 50% inhibitory concentration (IC50) of 21.4 nM.

For the molecule `CCOc1cc2c(cc1OC)C1CC(O)C(CC(C)C)CN1CC2` (configuration not stated), in [2] (microsomes, 1 h, 1 µM), the Stability came to 23.7%. Besides, the remaining at 1 h, 1 µM was determined as 9.4% in series [3] and 66.8% in series [4]. The CLint scaled at 1 µM was 131 mL/min/kg in series [5], 283 mL/min/kg in series [6] and 14.4 mL/min/kg in series [7]. The inhibition in series [11] and in series [12] was 99.9% in each case. This molecule also yielded an IC50 in [13] of 5.72 nM.

For the molecule `CCCOc1cc2c(cc1OC)C1CC(O)C(CC(C)C)CN1CC2` (configuration not stated), the inhibition is 99.3% in [11] and 91.2% in [12]. This molecule also registered an IC50 in series [13] of 35.2 nM.

In the case of `CCCOc1cc2c(cc1OC(C)C)C1CC(O)C(CC(C)C)CN1CC2` (configuration not stated), the IC50 in series [1] was > 500 nM.

With `COc1cc2c(cc1OC)C1CC(C)(O)C(CC(C)C)CN1CC2` (configuration not stated), in series [1], the IC50 is > 500 nM. Further, the inhibition in [11] came to 96.1%; in [12], 53.1%.

Turning to `CCOc1cc2c(cc1OCCCF)C1CC(O)C(CC(C)C)CN1CC2` (configuration not stated), in [1], the IC50 was > 500 nM.

For the molecule `COc1cc2c(cc1OC)[C@H]1C[C@@H](OC(=O)[C@@H](N)C(C)C)[C@H](CC(C)C)CN1CC2` [VALBENAZINE], in series [14], it took 1700 nM to reach half-maximal inhibition (IC50).

With `CCC1(O)CC2c3cc(OC)c(OC)cc3CCN2CC1CC(C)C` (configuration not stated), in series [1], the IC50 is > 500 nM. The inhibition in series [11] was determined as 81.7%; in series [12], 33.2%.

`COc1cc2c(cc1OC)[C@H]1C[C@@H](O)[C@H](CC(C)C)CN1CC2` [DIHYDROTETRABENAZINE]: the remaining at 1 h, 1 µM in series [2] was determined as 29.9%; in series [3] it was 4.8%; in series [4], 75.6%. In addition, the CLint scaled at 1 µM turned out to be 53.7 mL/min/kg in [5], 1150 mL/min/kg in [6] and 20.9 mL/min/kg in series [7]. Besides, the half-life at 1 µM in series [8] is 120 min; in series [9], 4.8 min; in series [10], 34.8 min. Moreover, in [15], the time of peak concentration (Tmax) came out at 22.8 min. The same molecule displayed a Cmax in [16] of 1210 nM. This molecule also came in with an AUC(0-inf) in series [17] of 2.3 µM·h. Moreover, the Vd/F in series [18] came out at 10.5 L/kg. In series [19], this molecule showed an apparent clearance CL/F of 74.5 mL/min/kg. For the same molecule, the half-life in series [20] is 96.6 min. Moreover, the inhibition in vivo at 3 µmol/kg in [21] was found to be 48.4%. Also, the inhibition in vivo at 15 µmol/kg in series [22] came out at 91.4%. For the same molecule, the Drug uptake in series [23] came out at 213.5 nmol/kg. In addition, the IC50 in [24], in series [25], in series [26], in series [27] and in [28] was > 100000 nM each time.
